In ChEMBL document CHEMBL4665865, “New series of isoxazole derivatives targeting EGFR-TK: Synthesis, molecular modeling and antitumor evaluation” (Bioorg Med Chem, 2020):

Assays:
[1] = Lipophilicity, logP of the compound; assay type: physicochemical; conditions: octanol/water
[2] = test system: HepG2; assay: Antitumor activity against human HepG2 cells assessed as inhibition of cell viability by MTT assay; assay type: functional, cell-based
[3] = test system: HCT-116; assay: Antitumor activity against human HCT-116 cells assessed as inhibition of cell viability by MTT assay; assay type: functional, cell-based
[4] = target: Epidermal growth factor receptor (Homo sapiens, UniProt P00533); assay: Inhibition of EGFR-TK (unknown origin) relative to control
[5] = test system: MCF7; assay: Antitumor activity against human MCF7 cells assessed as inhibition of cell viability by MTT assay; assay type: functional, cell-based
[6] = target: DNA topoisomerase 2-beta (Homo sapiens, UniProt Q02880); assay: Inhibition of Topoisomerase II beta (unknown origin) relative to control
Sequence of DNA topoisomerase 2-beta (Q02880 whole entry): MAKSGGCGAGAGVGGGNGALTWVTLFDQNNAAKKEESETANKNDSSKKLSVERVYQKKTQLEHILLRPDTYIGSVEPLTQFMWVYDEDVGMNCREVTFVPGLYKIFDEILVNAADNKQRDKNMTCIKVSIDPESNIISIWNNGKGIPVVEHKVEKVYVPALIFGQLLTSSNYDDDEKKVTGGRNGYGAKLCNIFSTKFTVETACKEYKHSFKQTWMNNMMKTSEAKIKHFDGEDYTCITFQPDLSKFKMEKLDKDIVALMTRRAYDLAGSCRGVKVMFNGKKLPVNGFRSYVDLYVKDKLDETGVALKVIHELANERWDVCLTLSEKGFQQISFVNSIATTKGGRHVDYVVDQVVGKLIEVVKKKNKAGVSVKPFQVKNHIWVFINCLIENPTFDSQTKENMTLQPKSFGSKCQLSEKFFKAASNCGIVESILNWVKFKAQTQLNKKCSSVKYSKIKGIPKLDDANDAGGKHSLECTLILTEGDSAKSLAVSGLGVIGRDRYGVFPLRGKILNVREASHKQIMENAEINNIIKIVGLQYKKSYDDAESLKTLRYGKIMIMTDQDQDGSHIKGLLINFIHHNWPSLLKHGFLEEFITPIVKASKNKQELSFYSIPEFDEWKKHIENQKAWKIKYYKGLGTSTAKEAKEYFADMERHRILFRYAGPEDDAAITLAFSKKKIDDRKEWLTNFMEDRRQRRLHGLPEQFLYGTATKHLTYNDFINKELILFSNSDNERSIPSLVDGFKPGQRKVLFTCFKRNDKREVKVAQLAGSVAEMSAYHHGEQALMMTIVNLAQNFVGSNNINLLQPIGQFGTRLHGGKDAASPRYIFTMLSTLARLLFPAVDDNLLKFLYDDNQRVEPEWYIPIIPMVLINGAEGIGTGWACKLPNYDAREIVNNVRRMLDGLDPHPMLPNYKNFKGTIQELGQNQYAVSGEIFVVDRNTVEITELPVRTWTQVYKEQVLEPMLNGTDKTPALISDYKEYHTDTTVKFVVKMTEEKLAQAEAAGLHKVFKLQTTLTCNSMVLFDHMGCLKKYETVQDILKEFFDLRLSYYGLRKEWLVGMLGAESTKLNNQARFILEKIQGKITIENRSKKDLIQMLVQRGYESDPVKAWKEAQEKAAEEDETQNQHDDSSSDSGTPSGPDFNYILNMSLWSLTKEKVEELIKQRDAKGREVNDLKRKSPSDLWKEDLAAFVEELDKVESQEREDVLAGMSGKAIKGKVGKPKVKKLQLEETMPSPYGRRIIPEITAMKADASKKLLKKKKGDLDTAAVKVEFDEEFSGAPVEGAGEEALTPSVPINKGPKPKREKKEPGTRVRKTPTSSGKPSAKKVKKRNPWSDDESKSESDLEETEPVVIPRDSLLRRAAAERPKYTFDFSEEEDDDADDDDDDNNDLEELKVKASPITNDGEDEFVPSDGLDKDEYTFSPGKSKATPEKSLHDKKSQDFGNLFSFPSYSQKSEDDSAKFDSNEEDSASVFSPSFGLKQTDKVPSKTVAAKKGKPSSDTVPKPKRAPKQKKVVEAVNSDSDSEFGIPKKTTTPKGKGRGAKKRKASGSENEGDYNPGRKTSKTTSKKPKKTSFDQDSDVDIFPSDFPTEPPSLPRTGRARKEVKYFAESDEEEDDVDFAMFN

Sequence of Epidermal growth factor receptor (P00533 whole entry): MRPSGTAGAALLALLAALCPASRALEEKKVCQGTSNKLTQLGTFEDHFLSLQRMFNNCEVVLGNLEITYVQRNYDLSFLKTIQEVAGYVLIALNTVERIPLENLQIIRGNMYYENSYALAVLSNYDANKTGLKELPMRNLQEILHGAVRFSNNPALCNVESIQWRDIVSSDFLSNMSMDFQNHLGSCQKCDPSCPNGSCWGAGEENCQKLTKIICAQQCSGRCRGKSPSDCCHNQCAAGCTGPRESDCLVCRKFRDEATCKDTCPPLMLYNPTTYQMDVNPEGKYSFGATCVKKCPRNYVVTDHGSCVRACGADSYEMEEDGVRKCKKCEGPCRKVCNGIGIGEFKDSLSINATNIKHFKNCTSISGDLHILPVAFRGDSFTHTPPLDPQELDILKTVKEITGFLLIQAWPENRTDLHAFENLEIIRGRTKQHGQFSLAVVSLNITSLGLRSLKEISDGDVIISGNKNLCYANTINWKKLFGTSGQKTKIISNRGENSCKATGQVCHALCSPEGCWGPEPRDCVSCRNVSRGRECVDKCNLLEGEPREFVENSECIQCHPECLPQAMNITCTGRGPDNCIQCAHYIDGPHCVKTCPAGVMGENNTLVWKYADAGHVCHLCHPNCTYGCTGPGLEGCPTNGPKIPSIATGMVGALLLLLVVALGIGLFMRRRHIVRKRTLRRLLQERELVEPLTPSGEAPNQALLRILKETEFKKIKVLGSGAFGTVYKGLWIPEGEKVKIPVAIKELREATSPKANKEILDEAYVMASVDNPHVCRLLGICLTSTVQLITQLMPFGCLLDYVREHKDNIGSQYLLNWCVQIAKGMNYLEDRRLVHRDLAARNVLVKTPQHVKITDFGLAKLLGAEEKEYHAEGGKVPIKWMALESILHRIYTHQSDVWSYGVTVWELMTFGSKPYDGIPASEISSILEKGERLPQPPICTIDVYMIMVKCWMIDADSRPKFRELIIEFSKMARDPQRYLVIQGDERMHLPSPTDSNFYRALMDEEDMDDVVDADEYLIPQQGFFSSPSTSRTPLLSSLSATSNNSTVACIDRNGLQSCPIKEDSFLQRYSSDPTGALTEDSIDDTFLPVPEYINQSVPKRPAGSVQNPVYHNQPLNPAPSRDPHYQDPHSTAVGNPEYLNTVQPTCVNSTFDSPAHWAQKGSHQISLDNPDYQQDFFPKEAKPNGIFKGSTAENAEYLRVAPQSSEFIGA

| SMILES | logP [1] | IC50 [2] [µM] | IC50 [3] [µM] | IC50 [4] [µM] | IC50 [5] [µM] | IC50 [6] [µM] |
| --- | --- | --- | --- | --- | --- | --- |
| Cc1ccc(/C=C2/SC(Nc3cc(C)on3)=NC2=O)cc1 | 3.43 | > 100 | > 100 |  | > 100 |  |
| COc1cccc2c1C(=O)c1c(O)c3c(c(O)c1C2=O)C[C@@](O)(C(=O)CO)C[C@@H]3O[C@H]1C[C@H](N)[C@H](O)[C@H](C)O1 [DOXORUBICIN] |  |  |  |  |  | 0.727 |
| CCN1CCN(CCC(=O)Nc2cc(C)on2)CC1 | 0.51 | 52.2 | 69 |  | 45.7 |  |
| Cc1cc(NC(=O)CCN2CCOCC2)no1 |  | 71.5 | 89.6 |  | 51.9 |  |
| CC(C)(C)c1cc(N2C(=O)c3c(Cl)c(Cl)c(Cl)c(Cl)c3C2=O)no1 |  | > 100 | > 100 |  | 88.3 |  |
| Cc1cc(NC(=O)CN2CCN(C)CC2)no1 | 0.23 | 63.5 | 88.2 |  | 65.1 |  |
| Cc1cc(NC2=NC(=O)/C(=C\c3c(F)cccc3Cl)S2)no1 |  | 31.1 | 31.8 |  | 21.4 |  |
| Cc1cc(NC(=O)CN2CCN(c3ccccc3)CC2)no1 | 1.93 | 35 | 26.2 | 0.064 | 16.7 |  |
| CC(C)(C)c1cc(NC(=O)CCN2CCN(c3ccccc3)CC2)no1 | 3.56 | 37.1 | 33.6 |  | 23 |  |
| Cc1cc(NC(=O)CCCl)no1 |  | 62 | 75.3 |  | 48.9 |  |
| Cc1cc(NC(=O)CCN2CCN(c3ccccc3)CC2)no1 | 1.84 | 51.8 | 46.1 |  | 29.1 |  |
| CC(C)(C)c1cc(N2C(=O)c3c(Br)c(Br)c(Br)c(Br)c3C2=O)no1 |  | 90.4 | > 100 |  | 64.9 |  |
| Cc1cc(NC(=O)CCl)no1 | 0.55 | 11.1 | 13.1 | 0.106 | 10.4 |  |
| CC(C)(C)c1cc(NC(=O)CCN2CCN(Cc3ccccc3)CC2)no1 | 3.26 | 83 | 85.2 |  | 55.4 |  |
| Cc1cc(NC2=NC(=O)/C(=C\c3ccc(Br)s3)S2)no1 |  | 32.8 | 36.6 |  | 24.2 |  |
| Cc1cc(N2C(=O)c3c(Br)c(Br)c(Br)c(Br)c3C2=O)no1 |  | > 100 | > 100 |  | > 100 |  |
| CC(C)(C)c1cc(NC(=O)CN2CCN(c3ccccc3)CC2)no1 | 3.66 | 28.4 | 24.7 | 0.066 | 17.2 |  |
| Cc1cc(NC(=O)CN2CCN(Cc3ccccc3)CC2)no1 | 1.63 | 50.3 | 73.2 |  | 44.8 |  |
| Cc1cc(NC(=O)CCN2CCN(C)CC2)no1 | 0.14 | 56.7 | 75.8 |  | 44.2 |  |
| Cc1cc(NC2=NC(=O)/C(=C\c3ccc(Br)cc3)S2)no1 | 3.79 | 87.8 | 95 |  | 68.7 |  |
| Cc1cc(NC2=NC(=O)/C(=C\c3ccc(-c4ccccc4)cc3)S2)no1 | 4.78 | > 100 | > 100 |  | > 100 |  |
| Cc1cc(N2C(=O)c3c(Cl)c(Cl)c(Cl)c(Cl)c3C2=O)no1 |  | > 100 | > 100 |  | > 100 |  |
| Cc1cc(NC(=O)CN2CCOCC2)no1 | 0.19 | > 100 | > 100 |  | 81.8 |  |
| CCN1CCN(CCC(=O)Nc2cc(C(C)(C)C)on2)CC1 | 2.24 | 76.4 | 91.2 |  | 61.3 |  |
| Cc1cc(NC2=NC(=O)/C(=C\c3ccc(Cl)c(Cl)c3)S2)no1 |  | 45.2 | 40.6 |  | 37.7 |  |
| Cc1cc(NC2=NC(=O)/C(=C\c3ccc4ccccc4c3)S2)no1 | 4.16 | > 100 | > 100 |  | > 100 |  |
| Cc1cc(NC(=O)CCN2CCN(Cc3ccccc3)CC2)no1 | 1.54 | 89.4 | > 100 |  | 92.2 |  |
| CC(C)(C)c1cc(NC(=O)CN2CCN(Cc3ccccc3)CC2)no1 | 3.36 | 57.1 | 78.4 |  | 47.9 |  |
| CCN1CCN(CC(=O)Nc2cc(C)on2)CC1 | 0.61 | 19.5 | 17.6 | 0.081 | 12.6 |  |

Results, then the compound that gave them:

| logP [1] | IC50 [2] [µM] | IC50 [3] [µM] | IC50 [4] [µM] | IC50 [5] [µM] | IC50 [6] [µM] | SMILES |
| --- | --- | --- | --- | --- | --- | --- |
| 1.97 | 18.3 | 11.5 | 0.15 | 9.42 |  | CC(C)(C)c1cc(NC2=NC(=O)CS2)no1 |
| 6.5 | 84.7 | 86.4 |  | 59.3 |  | CC(C)(C)c1cc(NC2=NC(=O)/C(=C\c3ccc(-c4ccccc4)cc3)S2)no1 |
|  | 68.2 | 66.7 |  | 42.9 |  | CC(C)(C)c1cc(NC2=NC(=O)/C(=C\c3ccco3)S2)no1 |
| 1.96 | 65.3 | 80.1 |  | 56.2 |  | CN1CCN(CC(=O)Nc2cc(C(C)(C)C)on2)CC1 |
|  | 41.6 | 58.3 |  | 30.3 |  | Cc1cc(NC2=NC(=O)/C(=C\c3ccco3)S2)no1 |
| 2.33 | 39.1 | 38.4 |  | 27.1 |  | CCN1CCN(CC(=O)Nc2cc(C(C)(C)C)on2)CC1 |
| 5.51 | 48.2 | 64.4 |  | 36.1 |  | CC(C)(C)c1cc(NC2=NC(=O)/C(=C\c3ccc(Br)cc3)S2)no1 |
|  | 93.5 | > 100 |  | 78.2 |  | CC(C)(C)c1cc(NC(=O)CCN2CCOCC2)no1 |
|  | 91.6 | > 100 |  | 70.6 |  | CC(C)(C)c1cc(NC2=NC(=O)/C(=C\c3c(F)cccc3Cl)S2)no1 |
|  | 74.8 | 92.6 |  | 59.8 |  | CC(C)(C)c1cc(NC(=O)CCCl)no1 |
|  | 43.8 | 62.8 |  | 32.5 |  | CC(C)(C)c1cc(NC2=NC(=O)/C(=C\c3ccc(Cl)c(Cl)c3)S2)no1 |
|  | > 100 | > 100 |  | > 100 |  | CC(C)(C)c1cc(NC2=NC(=O)/C(=C\c3ccc(Br)s3)S2)no1 |
| 1.91 | 25 | 28 | 0.144 | 19.6 |  | CC(C)(C)c1cc(NC(=O)CN2CCOCC2)no1 |
| 0.24 | 23.8 | 20.8 | 0.081 | 14.8 |  | Cc1cc(NC2=NC(=O)CS2)no1 |
| 1.86 | > 100 | > 100 |  | 74.6 |  | CN1CCN(CCC(=O)Nc2cc(C(C)(C)C)on2)CC1 |
| 5.15 | 55.4 | 51.3 |  | 39.6 |  | Cc1ccc(/C=C2/SC(Nc3cc(C(C)(C)C)on3)=NC2=O)cc1 |
| 5.89 | 79.2 | 94.2 |  | 67.6 |  | CC(C)(C)c1cc(NC2=NC(=O)/C(=C\c3ccc4ccccc4c3)S2)no1 |
| 2.27 | 9.74 | 9.96 | 0.124 | 7.15 |  | CC(C)(C)c1cc(NC(=O)CCl)no1 |
